Results reported in paper PMC11012124, “Synthesis of Novel Triazine-Based Chalcones and 8,9-dihydro-7H-pyrimido[4,5-b][1,4]diazepines as Potential Leads in the Search of Anticancer, Antibacterial and Antifungal Agents” (International Journal of Molecular Sciences, 2024).
≈ marks a conversion by molar mass, not a printed value.

Key:
NCI-H522 = assay: cells; conditions: Homo sapiens, NCI-H522, 48 h; for CC50: read-out: LC50
SK-MEL-28 = assay: cells; conditions: Homo sapiens, SK-MEL-28, 48 h; for CC50: read-out: LC50
CAKI-1 = assay: cells; conditions: Homo sapiens, CAKI-1, 48 h; for CC50: read-out: LC50
HCC-2998 = assay: cells; conditions: Homo sapiens, HCC 2998, 48 h; for CC50: read-out: LC50
SNB-19 = assay: cells; conditions: Homo sapiens, SNB-19, 48 h; for CC50: read-out: LC50
TK-10 = assay: cells; conditions: Homo sapiens, TK-10, 48 h; for CC50: read-out: LC50
SW-620 = assay: cells; conditions: Homo sapiens, SW-620, 48 h; for CC50: read-out: LC50
RXF 393 = assay: cells; conditions: Homo sapiens, RXF 393, 48 h; for CC50: read-out: LC50
K-562 = assay: cells; conditions: Homo sapiens, K562, 48 h; for GI50: K-562, 48 h; for CC50: read-out: LC50
SK-OV-3 = assay: cells; conditions: Homo sapiens, SK-OV-3, 48 h; for CC50: read-out: LC50
A549/ATCC = assay: cells; conditions: Homo sapiens, A549, 48 h; for CC50: read-out: LC50
NCI-H460 = assay: cells; conditions: Homo sapiens, NCI-H460, 48 h; for CC50: read-out: LC50
786-0 = assay: cells; conditions: Homo sapiens, 786-0, 48 h; for CC50: read-out: LC50
HOP-92 = assay: cells; conditions: Homo sapiens, HOP-92, 48 h; for CC50: read-out: LC50
NCI-H23 = assay: cells; conditions: Homo sapiens, NCI-H23, 48 h; for CC50: read-out: LC50
SK-MEL-5 = assay: cells; conditions: Homo sapiens, SK-MEL-5, 48 h; for CC50: read-out: LC50
[1] = system: M. tuberculosis ATCC 27294; assay: Antitubercular broth microdilution MIC; assay type: cell-based; conditions: Mycobacterium tuberculosis; M. tuberculosis ATCC 27294 (H37Rv); read-out: Minimum inhibitory concentration (MIC)
IGROV1 = assay: cells; conditions: Homo sapiens, IGROV-1, 48 h; for CC50: read-out: LC50
NCI/ADR-RES = assay: cells; conditions: Homo sapiens, 48 h; for CC50: read-out: LC50
SNB-75 = assay: cells; conditions: Homo sapiens, SNB-75, 48 h; for CC50: read-out: LC50
SR = assay: cells; conditions: Homo sapiens, 48 h
HCT-15 = assay: cells; conditions: Homo sapiens, HCT-15, 48 h; for CC50: read-out: LC50
SK-MEL-2 = assay: cells; conditions: Homo sapiens, SK-MEL-2, 48 h; for CC50: read-out: LC50
MDA-MB-468 = assay: cells; conditions: Homo sapiens, MDA-MB-468, 48 h; for CC50: read-out: LC50
KM12 = assay: cells; conditions: Homo sapiens, KM12, 48 h; for CC50: read-out: LC50

Structure (SMILES): Cc1ccc(/C=C/C(=O)c2ccc(S(=O)(=O)NCCNc3nc(Nc4ccc(F)cc4)nc(N(C)C)n3)cc2)cc1 [24b]
- GI50 (NCI-H522): 5.24 µM
- CC50 (NCI-H522): 45.3 µM
- GI50 (SK-MEL-28): 11.3 µM
- CC50 (SK-MEL-28): 49.6 µM
- GI50 (CAKI-1): 6.98 µM
- CC50 (CAKI-1): 58 µM
- GI50 (HCC-2998): 4.5 µM
- CC50 (HCC-2998): 41 µM
- GI50 (SNB-19): 11 µM
- CC50 (SNB-19): 50.2 µM
- GI50 (TK-10): 15.2 µM
- CC50 (TK-10): 61.9 µM
- GI50 (SW-620): 7.53 µM
- CC50 (SW-620): 49.4 µM
- GI50 (RXF 393): 4.98 µM
- CC50 (RXF 393): 44.9 µM
- GI50 (K-562): 3.89 µM
- CC50 (K-562): > 100 µM
- GI50 (SK-OV-3): 17 µM
- CC50 (SK-OV-3): > 100 µM
- GI50 (A549/ATCC): 10.5 µM
- CC50 (A549/ATCC): 77.7 µM
- GI50 (NCI-H460): 4.22 µM
- CC50 (NCI-H460): 52.3 µM
- GI50 (786-0): 10.5 µM
- CC50 (786-0): 51 µM
- GI50 (HOP-92): 7.63 µM
- CC50 (HOP-92): 54 µM
- GI50 (NCI-H23): 11.3 µM
- CC50 (NCI-H23): 50 µM
- GI50 (SK-MEL-5): 8.25 µM
- CC50 (SK-MEL-5): 45.9 µM
- MIC [1]: 25 µg/mL (≈ 43.4 µM)
- GI50 (IGROV1): 15.1 µM
- CC50 (IGROV1): 63.6 µM
- GI50 (NCI/ADR-RES): 8.4 µM
- CC50 (NCI/ADR-RES): 47.1 µM
- GI50 (SNB-75): 7.59 µM
- CC50 (SNB-75): > 100 µM
- GI50 (SR): 2.76 µM
- CC50 (SR; read-out: LC50): > 100 µM
- GI50 (HCT-15): 3.92 µM
- CC50 (HCT-15): 35.3 µM
- GI50 (SK-MEL-2): 11.2 µM
- CC50 (SK-MEL-2): 52.3 µM
- GI50 (MDA-MB-468): 4.66 µM
- CC50 (MDA-MB-468): 43 µM
- GI50 (KM12): 5.41 µM
- CC50 (KM12): 99.7 µM

Structure (SMILES): Cc1ccc(C2CC(c3ccc(S(=O)(=O)NCCNc4nc(Nc5ccc(F)cc5)nc(N(C)C)n4)cc3)=Nc3c(N)nc(N)nc3N2)cc1 (stereo not shown) [31b]
- GI50 (NCI-H522): 21.3 µM
- CC50 (NCI-H522): > 100 µM
- GI50 (SK-MEL-28): 26.9 µM
- CC50 (SK-MEL-28): > 100 µM
- GI50 (CAKI-1): 8.06 µM
- CC50 (CAKI-1): > 100 µM
- GI50 (HCC-2998): 2.93 µM
- CC50 (HCC-2998): 41.1 µM
- GI50 (SNB-19): 13.1 µM
- CC50 (SNB-19): > 100 µM
- GI50 (TK-10): > 100 µM
- CC50 (TK-10): > 100 µM
- GI50 (SW-620): 8.04 µM
- CC50 (SW-620): > 100 µM
- GI50 (RXF 393): 2.27 µM
- CC50 (RXF 393): 9.12 µM
- GI50 (K-562): 2.75 µM
- GI50 (SK-OV-3): > 100 µM
- CC50 (SK-OV-3): > 100 µM
- GI50 (A549/ATCC): > 100 µM
- CC50 (A549/ATCC): > 100 µM
- GI50 (NCI-H460): 4.76 µM
- CC50 (NCI-H460): > 100 µM
- GI50 (786-0): 7.06 µM
- CC50 (786-0): > 100 µM
- GI50 (HOP-92): 2.54 µM
- CC50 (HOP-92): 21 µM
- GI50 (NCI-H23): 78.8 µM
- CC50 (NCI-H23): > 100 µM
- GI50 (SK-MEL-5): 4.98 µM
- CC50 (SK-MEL-5): 20.6 µM
- MIC [1]: 0.6 µg/mL (≈ 0.86 µM)
- GI50 (IGROV1): 64.4 µM
- CC50 (IGROV1): > 100 µM
- GI50 (NCI/ADR-RES): > 100 µM
- CC50 (NCI/ADR-RES): > 100 µM
- GI50 (SNB-75): > 100 µM
- CC50 (SNB-75): > 100 µM
- GI50 (HCT-15): 4.95 µM
- CC50 (HCT-15): > 100 µM
- GI50 (SK-MEL-2): 11.2 µM
- CC50 (SK-MEL-2): 77.7 µM
- GI50 (MDA-MB-468): 2.72 µM
- CC50 (MDA-MB-468): 8.52 µM
- GI50 (KM12): 4.56 µM
- CC50 (KM12): > 100 µM

Structure (SMILES): CN(C)c1nc(NCCNS(=O)(=O)c2ccc(C(=O)/C=C/c3ccc(F)cc3)cc2)nc(Nc2ccc(F)cc2)n1 [24f]
- GI50 (NCI-H522): 2.81 µM
- CC50 (NCI-H522): 8.9 µM
- GI50 (SK-MEL-28): 3.6 µM
- CC50 (SK-MEL-28): 13.7 µM
- GI50 (CAKI-1): 3.01 µM
- CC50 (CAKI-1): 12.7 µM
- GI50 (HCC-2998): 1.8 µM
- CC50 (HCC-2998): 3.45 µM
- GI50 (SNB-19): 4.58 µM
- CC50 (SNB-19): 16.8 µM
- GI50 (TK-10): 4.62 µM
- CC50 (TK-10): 16.6 µM
- GI50 (SW-620): 1.9 µM
- CC50 (SW-620): 4.02 µM
- GI50 (RXF 393): 2.26 µM
- CC50 (RXF 393): 7.51 µM
- GI50 (K-562): 2.42 µM
- CC50 (K-562): 6.79 µM
- GI50 (SK-OV-3): 8.23 µM
- CC50 (SK-OV-3): 21.6 µM
- GI50 (A549/ATCC): 3.41 µM
- CC50 (A549/ATCC): 14.2 µM
- GI50 (NCI-H460): 2.45 µM
- CC50 (NCI-H460): 6.93 µM
- GI50 (786-0): 2.56 µM
- CC50 (786-0): 6.3 µM
- GI50 (HOP-92): 2.49 µM
- CC50 (HOP-92): 6.51 µM
- GI50 (NCI-H23): 4.17 µM
- CC50 (NCI-H23): 15.6 µM
- GI50 (SK-MEL-5): 2.91 µM
- CC50 (SK-MEL-5): 11.1 µM
- MIC [1]: 25 µg/mL (≈ 43.1 µM)
- GI50 (IGROV1): 4.27 µM
- CC50 (IGROV1): 15 µM
- GI50 (NCI/ADR-RES): 3.25 µM
- CC50 (NCI/ADR-RES): 11.6 µM
- GI50 (SNB-75): 2.88 µM
- CC50 (SNB-75): 16 µM
- GI50 (HCT-15): 1.99 µM
- CC50 (HCT-15): 4.28 µM
- GI50 (SK-MEL-2): 2.77 µM
- CC50 (SK-MEL-2): 8.31 µM
- GI50 (MDA-MB-468): 2.55 µM
- CC50 (MDA-MB-468): 8.09 µM
- GI50 (KM12): 2 µM
- CC50 (KM12): 4.41 µM
